The subject of series [1] is living cells. As to conditions: cited from earlier work.
The target of series [2] is T1, TOP (Homo sapiens, UniProt P52888).
T1 construct: was introduced into pTracer-transfected Kb-Cos7 cells; endogenous in cells; host or cells: Kb-Cos7 cells transfected with pTracer (GFP) only
Briefly: Generation of SIINFEKL+Kb complexes in Kb-Cos7 cells loaded with ovalbumin and TOP inhibitor by hypertonic lysis of pinosomes (25D1 staining, flow cytometry). The series is classed as cell-based. Particulars: cells transfected with TOP. From the text:
(§1) To test whether TOP can influence antigen presentation, the effects of transiently overexpressing TOP in vivo on the presentation of SIINFEKL (SEQ ID NO:5) peptide produced in the cytoplasm from a synthetic minigene were studied. In one set of experiments, expression vectors encoding TOP and SIINFEKL were transiently co-transfected into Kbexpressing COS7 cells. The presentation of SIINFEKL on MHC class I Kb molecules was detected by staining with a SIlNFEKL+Kb-specific monoclonal antibody (25D1) (Porgador et al., 1997, Immunity. 6:715-726) and quantified by flow cytometry. Briefly, Kb-Cos7 cells were co-transfected with a SIINFEKL minigene in pCDNA3 and a pTracer plasmid encoding green fluorescence protein (GFP), GFP+human TOP or GFP+ORP 150 (a control protein) using FuGENE™ (Roche Applied Science). After 48 hours, the cells were stained with an anti-SIINFEKL+Kb specific nAb (25D1) (Porgador et al., 1997, supra) followed by pbycoerythrin-conjugated anti-immunoglobulin antibody and fluorescence was measured by flow fluorocytometry. […]
(§2) The data of FIG. 3C were generated in experiments in which ovalbumin (40 mg/ml) admixed with either the TOP inhibitor cPP-AAF-pAB (1 mM) or vehicle (DMSO) was introduced into pTracer-transfected Kb-Cos7 cells. After two hours the presence of SIINFEKL+Kb complexes was determined by immunofluorescence as described for FIG. 1A (supra). […]

The test system of series [3] is TOP. The description is as above. The series is classed as cell-based. Particulars: Kb-Cos7 cells not overexpressing TOP; ovalbumin 40 mg/ml, inhibitor 1 mM, two hours; FIG. 3C.
Text: as §1, §2

Series [4] addresses pure PSA (Homo sapiens, UniProt P55786). Put plainly: Degradation of FAPGNYPAL by pure PSA. The format is biochemical. Particulars: PSA at concentrations similar to those found in HeLa cells.

The values below come from US20030003086A1, “Modulation of MHC class I antigen presentation” (priority 2001, published 2003).

Sequence of pure PSA (P55786 whole entry): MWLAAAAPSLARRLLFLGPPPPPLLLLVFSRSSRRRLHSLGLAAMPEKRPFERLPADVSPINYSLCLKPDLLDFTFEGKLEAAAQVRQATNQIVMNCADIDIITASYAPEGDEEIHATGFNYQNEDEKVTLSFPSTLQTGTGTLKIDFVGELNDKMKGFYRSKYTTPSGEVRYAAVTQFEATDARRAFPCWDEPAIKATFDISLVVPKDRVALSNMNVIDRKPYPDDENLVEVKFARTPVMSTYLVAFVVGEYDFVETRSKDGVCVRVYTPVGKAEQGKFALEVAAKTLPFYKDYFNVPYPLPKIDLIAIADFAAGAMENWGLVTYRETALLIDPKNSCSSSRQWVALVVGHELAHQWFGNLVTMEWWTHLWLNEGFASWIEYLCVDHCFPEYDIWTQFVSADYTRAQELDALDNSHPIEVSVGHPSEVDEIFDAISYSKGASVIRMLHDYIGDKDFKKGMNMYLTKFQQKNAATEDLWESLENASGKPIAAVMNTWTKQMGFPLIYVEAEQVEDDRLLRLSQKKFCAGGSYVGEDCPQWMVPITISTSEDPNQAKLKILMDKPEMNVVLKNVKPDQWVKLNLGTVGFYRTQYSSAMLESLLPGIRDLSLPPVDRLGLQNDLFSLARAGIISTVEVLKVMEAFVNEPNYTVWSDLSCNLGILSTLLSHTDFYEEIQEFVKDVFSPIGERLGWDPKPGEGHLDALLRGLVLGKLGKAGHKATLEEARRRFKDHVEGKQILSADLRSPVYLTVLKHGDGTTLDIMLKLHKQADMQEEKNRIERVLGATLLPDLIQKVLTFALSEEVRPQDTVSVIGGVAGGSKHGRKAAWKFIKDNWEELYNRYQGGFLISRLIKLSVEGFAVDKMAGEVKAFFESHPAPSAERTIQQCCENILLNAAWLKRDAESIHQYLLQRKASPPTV
T1 sequence (P52888 whole entry): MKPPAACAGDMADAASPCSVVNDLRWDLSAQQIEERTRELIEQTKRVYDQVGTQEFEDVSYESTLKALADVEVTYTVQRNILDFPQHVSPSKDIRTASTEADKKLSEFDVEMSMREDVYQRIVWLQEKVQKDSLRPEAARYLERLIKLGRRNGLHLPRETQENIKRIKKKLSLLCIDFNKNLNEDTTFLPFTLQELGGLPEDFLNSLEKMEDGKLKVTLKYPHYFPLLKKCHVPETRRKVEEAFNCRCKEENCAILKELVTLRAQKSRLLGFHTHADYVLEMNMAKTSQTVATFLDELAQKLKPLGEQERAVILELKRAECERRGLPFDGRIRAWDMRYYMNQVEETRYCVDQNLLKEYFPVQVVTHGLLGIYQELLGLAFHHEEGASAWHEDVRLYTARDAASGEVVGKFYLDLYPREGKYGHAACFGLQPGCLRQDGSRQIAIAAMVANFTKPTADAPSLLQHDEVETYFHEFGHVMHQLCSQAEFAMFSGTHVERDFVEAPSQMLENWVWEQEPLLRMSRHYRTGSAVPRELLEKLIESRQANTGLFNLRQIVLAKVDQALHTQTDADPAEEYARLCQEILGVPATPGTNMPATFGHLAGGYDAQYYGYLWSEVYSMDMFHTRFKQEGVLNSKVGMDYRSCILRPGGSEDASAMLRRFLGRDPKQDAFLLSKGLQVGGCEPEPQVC

Regarding “N-(1(RS)-carboxy-3-phenylpropyl)-Ala-Ala-Tyr-p-aminobenzoate [cPP-AAF-PAB]”, the “entry into living cells / cell cytosol” value in series [1] is given as “does not enter living cells”. The “generation of SIINFEKL-Kb complexes (MHC class I presentation)” value in series [2] and in series [3] was “enhanced” in each case.
Regarding “FAPGNYPAL [antigenic peptide, Sendai Virus NP, residues 324-332]”, the “susceptibility to degradation by pure PSA” value in series [4] is given as “particularly susceptible to degradation”.
